US20200246316A1, “METHODS OF TREATING POST-SURGICAL PAIN WITH A THIAZOLINE ANTI-HYPERALGESIC AGENT” (CERSCI THERAPEUTICS, INC., priority 2019, published 2020)
Entries after “also recorded” stand apart in the source; their conditions may differ. Counter-ions that a name gives are not always drawn. Like-named read-outs stand apart in the source and are kept apart here.

Key:
[1] = Log D distribution coefficient (PBS buffer/octanol); assay type: physicochemical
Description: Compound 1 has a Log D distribution coefficient at pH 7.2 of −0.07 (3 mL PBS Buffer: 1 mL Octanol) and −0.39 (2 mL PBS Buffer: 2 mL Octanol), where PBS is phosphate buffer solution.

peroxynitrite (PN) = test: Chemical-based assays of peroxynitrite (PN) oxidation; assay type: biochemical
Source text: In cell-based assays of PN-mediated cytotoxicity, Compound 1 is protective. […] Chemically, Compound 1 can also react stoichiometrically with peroxynitrite to form a para-nitro adduct. Without being bound by theory, by targeting and removing peroxynitrite and peroxide, Compound 1 can disrupt the ensuing cascades that lead to hypersensitivity (protein modification, ion channel hyperexcitation) thus providing a long duration event in terms of pain relief.

[2] = tested on: rat hind paw incision model; test: Brennan incisional pain model, prophylactic paradigm; assay type: in vivo
Source text: Two incisional pain models were used to assess Compound 1 effects on hyperalgesia. The first model is referred to as the Brennan model in which, under anesthesia, a 1 cm longitudinal incision to the skin and underlying fascia of a rat hindpaw is made. The second is a variation but is a more invasive procedure in which the skin and muscle are spread apart using forceps which creates a longer-lasting hypersensitivity.
Using the Brennan protocol and a prophylactic paradigm, Compound 1 (3 doses given PO) or vehicle was administered 15 min prior to incision. At the 24-, 48-, and 72-h time points post-incision, mechanical thresholds were obtained (manual von Frey filament, using up/down method).
In a subsequent experiment, the same paradigm was used with Compound 1 administered at a dose of 30 mg/kg PO along with positive control group consisting of celecoxib (30 mg/kg PO), morphine (10 mg/kg SC), and vehicle.

[3] = Effect of food on oral bioavailability in rats; assay type: in vivo, rat
Description: The effect of food on oral bioavailability was determined.

[4] = Rat 7-day repeat dose PO study (toxicokinetics, MTD); assay type: in vivo; details: 2000 mg/kg
Source text: The vehicle was 0.5% HPMC.
Toxicokinetic (TK) results were as follows:

[5] = Metabolic stability in hepatocytes; assay type: in vitro ADME
Source text: (§1) Further metabolism work in additional species will be undertaken.

Stability in plasma = assay type: in vitro ADME
Source text: Upon administration, Compound 1 is stable in both plasma and hepatocytes from rat, dog and human.

[6] = Stability in plasma from a variety of species; assay type: in vitro ADME
Source text: as §1

CYP1A2 = target: T1, CYP1A2 (Homo sapiens, UniProt P05177); test: CYP inhibition in human liver microsomes; assay type: in vitro ADME
T1 construct: tissue BD Gentest; host or cells: human liver microsomes
T1 sequence (P05177 1-516): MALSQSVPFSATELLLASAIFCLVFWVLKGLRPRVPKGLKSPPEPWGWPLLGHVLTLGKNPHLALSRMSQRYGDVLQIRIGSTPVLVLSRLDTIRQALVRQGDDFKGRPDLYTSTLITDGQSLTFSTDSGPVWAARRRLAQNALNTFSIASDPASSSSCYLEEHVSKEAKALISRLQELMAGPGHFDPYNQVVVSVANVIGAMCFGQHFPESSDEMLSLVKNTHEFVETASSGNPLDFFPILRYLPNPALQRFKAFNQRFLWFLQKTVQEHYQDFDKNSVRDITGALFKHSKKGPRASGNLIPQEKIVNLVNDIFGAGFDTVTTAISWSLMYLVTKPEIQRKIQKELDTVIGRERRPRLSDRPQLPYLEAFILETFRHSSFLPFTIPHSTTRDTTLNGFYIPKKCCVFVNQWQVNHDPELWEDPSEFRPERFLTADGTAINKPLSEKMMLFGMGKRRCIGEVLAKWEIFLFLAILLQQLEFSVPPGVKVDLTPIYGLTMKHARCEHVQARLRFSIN
Description: (§2) At varying concentrations, Compound 1 was incubated with human liver microsomes (HLM) in the presence of known substrates (see below) of specific CYP isoforms, in order to measure inhibition induced by Compound 1. Microsomes were incubated with known inhibitors (positive controls) of each CYP isoform, in the presence of substrate, in order to measure the metabolic activity of the microsomes.

CYP2C19 = target: T2, CYP2C19 (Homo sapiens, UniProt P33261); test: CYP inhibition in human liver microsomes; assay type: in vitro ADME
T2 construct: tissue BD Gentest; host or cells: human liver microsomes
Description: as §2

CYP2D6 = target: T3, CYP2D6 (Homo sapiens, UniProt P10635); test: CYP inhibition in human liver microsomes; assay type: in vitro ADME
T3 construct: tissue BD Gentest; host or cells: human liver microsomes
Description: as §2

CYP3A4 = target: T4, CYP3A4 (Homo sapiens, UniProt P08684); test: CYP inhibition in human liver microsomes; assay type: in vitro ADME
T4 construct: tissue BD Gentest; host or cells: human liver microsomes
Description: as §2

[7] = Cytotoxicity by lactate dehydrogenase (LDH) release; assay type: cell-based; details: human, Caco-2 cells; read-out: percent cytotoxicity (LDH release)
[8] = as above; assay type: cell-based; details: human, HEK293 cells; read-out: percent cytotoxicity (LDH release)
[9] = Elimination from plasma after intravenous administration in rats; assay type: in vivo; details: rat
[10] = both, Sprague Dawley (Hsd:SD), rat, in vivo, po

T3 sequence (P10635 whole entry): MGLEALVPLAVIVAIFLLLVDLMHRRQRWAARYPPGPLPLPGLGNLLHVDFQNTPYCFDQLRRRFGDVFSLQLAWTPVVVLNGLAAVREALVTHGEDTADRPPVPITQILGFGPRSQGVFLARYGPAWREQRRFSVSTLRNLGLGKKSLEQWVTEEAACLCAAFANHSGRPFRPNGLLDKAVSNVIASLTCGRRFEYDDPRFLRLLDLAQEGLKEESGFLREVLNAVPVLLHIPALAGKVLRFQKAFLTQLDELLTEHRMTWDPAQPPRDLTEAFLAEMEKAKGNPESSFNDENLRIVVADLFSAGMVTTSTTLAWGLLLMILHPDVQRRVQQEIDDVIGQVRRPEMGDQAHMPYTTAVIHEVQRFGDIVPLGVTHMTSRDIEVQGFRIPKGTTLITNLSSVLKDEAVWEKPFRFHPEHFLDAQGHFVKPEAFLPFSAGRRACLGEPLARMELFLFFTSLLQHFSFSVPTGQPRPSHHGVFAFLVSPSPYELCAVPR
T4 sequence (P08684 whole entry): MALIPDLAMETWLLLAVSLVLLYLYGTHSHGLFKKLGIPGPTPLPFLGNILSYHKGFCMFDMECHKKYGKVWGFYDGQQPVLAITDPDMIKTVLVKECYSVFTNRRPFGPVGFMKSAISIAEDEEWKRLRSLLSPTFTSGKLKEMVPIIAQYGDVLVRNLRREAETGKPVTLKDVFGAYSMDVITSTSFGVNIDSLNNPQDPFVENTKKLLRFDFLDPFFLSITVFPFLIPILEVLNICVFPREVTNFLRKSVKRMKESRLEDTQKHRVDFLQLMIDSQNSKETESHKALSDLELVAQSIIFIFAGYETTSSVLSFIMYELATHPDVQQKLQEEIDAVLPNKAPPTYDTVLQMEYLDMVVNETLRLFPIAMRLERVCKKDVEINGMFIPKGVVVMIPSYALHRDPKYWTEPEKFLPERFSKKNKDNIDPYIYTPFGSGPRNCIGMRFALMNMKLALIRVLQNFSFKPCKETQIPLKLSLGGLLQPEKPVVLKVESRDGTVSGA
T2 sequence (P33261 whole entry): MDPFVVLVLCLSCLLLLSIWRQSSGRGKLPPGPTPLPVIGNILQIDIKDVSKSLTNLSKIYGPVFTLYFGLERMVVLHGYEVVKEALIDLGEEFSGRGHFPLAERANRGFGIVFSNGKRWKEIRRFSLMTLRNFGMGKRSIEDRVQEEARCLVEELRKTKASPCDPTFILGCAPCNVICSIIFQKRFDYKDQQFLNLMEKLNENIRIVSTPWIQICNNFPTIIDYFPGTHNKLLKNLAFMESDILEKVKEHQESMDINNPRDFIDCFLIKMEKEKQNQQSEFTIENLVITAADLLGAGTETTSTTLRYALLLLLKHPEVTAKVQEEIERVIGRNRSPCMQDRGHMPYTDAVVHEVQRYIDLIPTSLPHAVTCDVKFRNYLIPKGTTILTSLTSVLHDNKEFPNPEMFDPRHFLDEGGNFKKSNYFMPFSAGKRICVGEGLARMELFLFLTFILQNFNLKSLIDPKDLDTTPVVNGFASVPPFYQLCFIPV

With `CC1(C)SC(Nc2ccccc2O)=N[C@@H]1C(=O)O` [Compound 1, (R)-2-(2-hydroxyphenylamino)-5,5-dimethyl-4,5-dihydrothiazole-4-carboxylic acid mono-hydrochloride] the logD ([1]; pH 7.2, pH 7.2, 2 mL PBS Buffer: 2 mL Octanol) was -0.39, the logD ([1]; pH 7.2, pH 7.2, 3 mL PBS Buffer: 1 mL Octanol) was -0.07 and the “PN-mediated oxidation of small-molecule organic substrates such as luminol” value (peroxynitrite (PN)) was “inhibits PN-mediated oxidation”. For the same molecule, the reversal of hyperalgesia ([2]; 10 mg/kg PO, mono-hydrochloride) was “statistically significant reversal of hyperalgesia; also recorded: statistically significant effect”, the “efficacy relative to vehicle” value ([2]; 30 mg/kg PO) was “full efficacy” and the “dose dependence of anti-hyperalgesic effect” value ([2]; 3 doses PO, 24, 48, 72 h post-incision, mono-hydrochloride) was “reversal of hyperalgesia in a dose-dependent manner”. For the same molecule, the mechanical withdrawal thresholds ([2]; 24-, 48-, 72-h post-incision, Compound 1 30 mg/kg PO, celecoxib 30 mg/kg PO, morphine 10 mg/kg SC) was 32 to 35 g, the “dose required for significance” value ([2]; PO, single dose 15 min prior to incision) was 10 mg/kg and the “duration of prevention of incisional hyperalgesia” value ([2]; single oral dose) was “at least 3 days”. For the same molecule, the “duration of effect on development of hyperalgesia” value ([2]; single oral dose, FIG. 10) was “prevented the development of hyperalgesia for three days”, the “effect on development of mechanical hyperalgesia” value ([2]; single pre-surgical dose, 24 h, 48 h, 72 h post dose, FIG. 11) was “completely prevented development of mechanical hyperalgesia out through day 3” and the “peak plasma concentrations in fasted compared to fed rats” value ([3]; 10 mg/kg) was “significantly increased”. The “difference in pharmacokinetic properties fed vs fasted” value ([3]; 100 mg/kg oral) was “No statistically significant differences”, the oral absorption ([3]; fed and fasted rats, 10 and 100 mg/kg) was “well and rapidly absorbed” and the Cmax ([4]; both sexes, Sprague Dawley (Hsd:SD), rat, in vivo, po) was 121 µg/mL. It also gave an AUC(0-t) ([4]; both sexes, Sprague Dawley (Hsd:SD), rat, in vivo, po, AUC0-24 (mean)) of 1370 µg·h/mL, a Cmax ([4]; both sexes, Sprague Dawley (Hsd:SD), rat, in vivo, po, Seventh Daily Dose, 2000 mg/kg PO, read-out: Cmax (mean)) of 119 µg/mL and a half-life ([4]; both sexes, Sprague Dawley (Hsd:SD), rat, in vivo, po, T1/2 (mean)) of 3.9 h. The Tmax ([4]; both sexes, Sprague Dawley (Hsd:SD), rat, in vivo, po, Tmax (mean)) was 2 h, the MTD at 7 days ([4]; both sexes, Sprague-Dawley (Hsd:SD), rat, in vivo, oral gavage 7 days) was 2000 mg/kg and the “AUC0-24 (mean)” value [4, 10] was 1609 µg·h/mL. For the same molecule, the “T1/2 (mean)” value [4, 10] was 6.7 h, the “Tmax (mean)” value [4, 10] was 1 h and the tolerability ([4]; female rats, oral gavage 7 days) was “tolerated”. For the same molecule, the stability in hepatocytes ([5]; dog, mono-hydrochloride) was “stable; also recorded: showed metabolic stability”, the stability in hepatocytes ([5]; human, mono-hydrochloride) was “stable; also recorded: showed metabolic stability” and the stability in hepatocytes ([5]; monkey) was “showed metabolic stability”. The stability in hepatocytes ([5]; rat, mono-hydrochloride) was “stable; also recorded: showed metabolic stability”, the stability in plasma (Stability in plasma; dog) was “stable” and the stability in plasma (Stability in plasma; human) was “stable”. The stability in plasma (Stability in plasma; rat) was “stable”, the stability in plasma [6] was “stable” and the “CYP inhibition” value (CYP1A2; CYP1A2, up to 100 μM) was “did not inhibit”. For the same molecule, the IC50 (CYP1A2; CYP1A2, read-out: IC50) was greater than 100 µM, the IC50 (CYP1A2; human liver microsomes, known substrate of the CYP isoform, read-out: IC50 (μM) CYP 1A2) was greater than 100 µM and the “CYP inhibition” value (CYP2C19; CYP2C19, up to 100 μM) was “did not inhibit”. The IC50 (CYP2C19; CYP2C19, read-out: IC50) was greater than 100 µM, the IC50 (CYP2C19; human liver microsomes, known substrate of the CYP isoform, read-out: IC50 (μM) CYP 2C19) was greater than 100 µM and the “CYP inhibition” value (CYP2D6; CYP2D6, up to 100 μM) was “did not inhibit”. For the same molecule, the IC50 (CYP2D6; CYP2D6, read-out: IC50) was greater than 100 µM, the IC50 (CYP2D6; human liver microsomes, known substrate of the CYP isoform, read-out: IC50 (μM) CYP 2D6) was greater than 100 µM and the “CYP inhibition” value (CYP3A4; CYP3A4, up to 100 μM) was “did not inhibit”. For the same molecule, the IC50 (CYP3A4; CYP3A4, read-out: IC50) was greater than 100 µM, the IC50 (CYP3A4; human liver microsomes, known substrate of the CYP isoform, read-out: IC50 (μM) CYP 3A4) was greater than 100 µM and the cytotoxicity [7] was less than 25%. The cytotoxicity [8] was less than 25% and the half-life [9] was roughly 3 h.
